In BindingDB's records for patent US20260001888 (Merck Sharp & Dohme, 2026) one finds Ki data, which are given here for four compounds.

This test concerns the target High affinity cGMP-specific 3',5'-cyclic phosphodiesterase 9A (Homo sapiens, UniProt O76083). Put plainly: PDE9 Inhibitory Activity Assay. How it is done: Human PDE9 (PDE9A2, GenBank Accession No. NM_001001567), full length with N-terminal GST tag, was purchased from BPS Bioscience. The fluorescence polarization assay for cyclic nucleotide phosphodiesterases was performed using an IMAP FP kit supplied by Molecular Devices, Sunnyvale, CA (product #R8139). IMAP technology has been applied previously to phosphodiesterase assays (Huang, W., et al., J. Biomol Screen, 2002, 7:215). Assays were performed at room temperature in 384-well microtiter plates with an incubation volume of 20.2 μL. Solutions of test compounds were prepared in DMSO and serially diluted with DMSO to yield 8 μL of each of 10 solutions differing by 3-fold in concentration, at 32 serial dilutions per plate. 100% inhibition is determined using a known PDE9 inhibitor, such as 1-(2-chlorophenyl)-6-[(2R)-3,3,3-trifluoro-2-methylpropyl]-1,5-dihydro-4H-pyrazolo[3,4-d]pyrimidine-4-one (BAY 73-6691) (Wunder et al, Mol. Pharmacol., 2005, 68 (6): 1775-81), (6-[(3S,4S)-4-methyl-1-(pyrimidin-2-ylmethyl) pyrrolidin-3-yl]-1-(tetrahydro-2H-pyran-4-yl)-1,5-dihydro-4H-pyrazolo[3,4-d]pyrimidin-4-one (PF-04447943) (Wager et al., ACS Chemical Neuroscience, 2010, 1:435-449). 0% of inhibition is determined by using DMSO (1% final concentrations). A Labcyte Echo 555 (Labcyte, Sunnyvale, CA) is used to dispense 200 nL from each well of the titration plate to the 384 well assay plate. Human PDE9A2 membrane preps were diluted to 1 ng/ml. […] PDE9 enzyme mix and compounds were mixed and incubated at room temperature for 30 min. Following which, FAMcGMP substrate was added, shaken and incubated for an additional 60 min at room temperature. The final concentration of human PDE9 membrane preparations were 0.5 ng/ml. The final concentration of FAM-cGMP was 50 nM. After the incubation period, the enzymatic reaction was stopped by addition of binding solution (IMAP-FP, Molecular Devices, comprised of 80% Solution A, 20% Solution B and a 1:600 dilution of binding reagent) to each well. The plates were shaken then incubated at room temperature for 1 h prior to determining the fluorescence polarization (mP) using a Perkin Elmer En Vision™ plate reader (Waltham, MA).

The structures appear in SMILES notation.

Sequence of High affinity cGMP-specific 3',5'-cyclic phosphodiesterase 9A (O76083 whole entry): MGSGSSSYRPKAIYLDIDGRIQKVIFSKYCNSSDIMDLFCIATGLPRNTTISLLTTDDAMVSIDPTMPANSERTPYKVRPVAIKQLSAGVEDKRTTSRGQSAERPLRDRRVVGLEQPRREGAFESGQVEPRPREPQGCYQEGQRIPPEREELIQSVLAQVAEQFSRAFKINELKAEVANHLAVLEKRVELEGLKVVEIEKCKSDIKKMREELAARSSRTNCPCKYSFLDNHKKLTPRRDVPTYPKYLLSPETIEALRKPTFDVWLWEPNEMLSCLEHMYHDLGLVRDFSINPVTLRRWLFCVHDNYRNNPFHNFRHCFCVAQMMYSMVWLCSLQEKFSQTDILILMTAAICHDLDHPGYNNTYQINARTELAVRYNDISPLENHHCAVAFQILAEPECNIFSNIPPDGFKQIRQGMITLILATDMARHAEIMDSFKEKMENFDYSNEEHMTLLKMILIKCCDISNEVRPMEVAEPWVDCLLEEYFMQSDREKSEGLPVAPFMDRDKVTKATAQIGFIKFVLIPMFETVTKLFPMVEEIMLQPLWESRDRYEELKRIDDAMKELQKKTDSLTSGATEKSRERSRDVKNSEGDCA

Take `CCC(c1ncc(OC(F)(F)F)cn1)N(C)c1nc2c(c(C#N)nn2C(C)c2ccc(C(F)(F)F)nc2)c(=O)[nH]1` (single isomer, unassigned; form 1) [US20260001888, Example 59]: affinity was put at a Ki of 12.1 nM.

Consider `CCC(c1ncc(OC(F)(F)F)cn1)N(C)c1nc2c(c(C#N)nn2C(C)c2ccc(C(F)(F)F)nc2)c(=O)[nH]1` (single isomer, unassigned; form 2) [US20260001888, Example 60], for which the affinity corresponds to a Ki of 1.06 nM.

Regarding `CCC(c1ncc(OC(F)(F)F)cn1)N(C)c1nc2c(c(C#N)nn2C(C)c2ccc(C(F)(F)F)nc2)c(=O)[nH]1` (single isomer, unassigned; form 3) [US20260001888, Example 61], the Ki is 0.17 nM.

`CCC(c1ncc(OC(F)(F)F)cn1)N(C)c1nc2c(c(C#N)nn2C(C)c2ccc(C(F)(F)F)nc2)c(=O)[nH]1` (single isomer, unassigned; form 4) [US20260001888, Example 62] came in with a Ki of 50.7 nM.
